Like-named read-outs stand apart in the source and are kept apart here.
What was measured:
Format in all cases: physicochemical
[1] = Ratiometric emission of pH sensor spot with dyes bound into SOL-GEL-matrix at different pH; conditions: for pKa from ratiometric emission signal: with R1C
Description: FIG. 9. Emission spectra of a pH sensor spot loaded with I1C (signal at ca. 590 nm) and R1C (signal at ca. 650 nm) covalently bound into the SOL-GEL-matrix recorded at different pH values (solid line: pH 2.48, circles: pH 6.26, crosses: 9.89).
(§1) Emission spectroscopy was performed in front-face set-up for sensor spot samples and in a conventional L-shape set-up for measuremetns in solution. A Perkin-Elmer LS50B and a Horiba Fluorolog 3 were used interchangeably. Intensity based sensor measurements were only performed on the LS50B platform. Fluorescence lifetime based sensor measurements were only performed on the Fluorolog 3. Absorption spectroscopy was performed on a Perkin Elmer Lambda1050, with integrating sphere (for sensor spots) and with a 3-detector module for solution samples.
The compounds according to 6 or 7 are mixed into either the ETEOS or the GPTMS gel component 1 h after mixing of the materials described. Subsequently, the ETEOS or the GPTMS gel components are mixed. The two components are then mixed in 1:1 molar ratio and left at a stirring table for no less than 3 days. The dyes 6 or 7 are added in an amount so that a final concentration of 0.1 mM of dye is obtained in the final GPTMS-ETEOS mixture. The resulting GPTMS-ETEOS-dye mixture is then deposited and cured at 110° C. for 3-4 hours.

[2] = Photophysical properties and pKa of DAOTA dyes, fluorescence intensity at different pH, 6% DMSO in PBS buffer; conditions: for pKa: 6% DMSO in PBS buffer solution, normalized fluorescence intensity at 588 nm at different pH, sigmoidal fits (FIG. 8)
From the text: FIG. 6. Absorption spectra of MR-68_DAOTA measured in 6% DMSO in PBS buffer solution. Circles (o) represent the absorption spectrum of the protonated form (measured at acidic conditions) and crosses (x) represent the absorption spectrum of the deprotonated form (measured at basic conditions).
FIG. 7. Emission spectra of MR-68_DAOTA measured in 6% DMSO in PBS buffer solution. Circles (o) represent the absorption spectrum of the protonated form (measured at acidic conditions) and crosses (x) represent the absorption spectrum of the deprotonated form (measured at basic conditions).
FIG. 8. […] The solid lines are sigmoidal fits to the experimental data.
as §1

[3] = Absorption and emission spectra, photophysical properties of pH-responsive triangulenium dyes in solution; parameters: λmax (wavelength of maximum absorption) / λem (wavelength of maximum emission): unit not given here; conditions: for pKa / λem (wavelength of maximum emission) / λmax (wavelength of maximum absorption): in solution; for ϕfl- (φfl-off, fluorescence quantum yield, off-state): off-state (quenched); for ϕfl- (φfl-on, fluorescence quantum yield, on-state): on-state (not quenched)
Description: Absorption and emission spectrum of the prepared triangulenium compounds of Formula (I) were measured and their photophysical properties are compiled in table 2.
pKa is −log10 of the acid dissociation constant, Ka, and is a quantitative measure of the strength of an acid in solution. λmax denotes the wavelength wherein maximum absorption is obtained. λem denotes the wavelength wherein maximum emission is obtained. φfl-on and φfl-off are the fluorescence quantum yields, wherein the responsive fluorescent compounds are in their on-state (not quenched) and off-state (quenched), respectively. Ion/Ioff is the ratio between φfl-on and φfl-off.
All disclosed absorption and emission spectrum measurement shown herein are measured as follows:
as §1

[4] = Comparison of solution and sol-gel spectra and titration curves of 4g; conditions: upon attaching to the matrix material
From the text: The arrow indicates the change from pH˜11 to pH˜1.

[5] = Readout and chemical stability of optical sensor of DMQA+ and 4g in ORMOSIL matrix
Description: In order to validate the sensor performance, different stability tests were performed. One critical parameter for an optical sensor is known to be the read-out stability. Another critical parameter for optical sensors is the chemical stability.

[6] = first value of cell, protonated form
[7] = second value of cell, deprotonated form
[8] = covalently bound into the SOL-GEL-matrix

Molecule: CCO[Si](CCCNC(=O)N(C)CCCn1c2cccc(OC)c2[c+]2c3c(OC)cccc3n(CCCN(C)C(=O)NCCC[Si](OCC)(OCC)OCC)c3cccc1c32)(OCC)OCC [Compound R1C, 5,9-bis(4,4-diethoxy-10-methyl-9-oxo-3-oxa-8,10-diaza-4-silatridecan-13-yl)-1,13-dimethoxy-5,9-dihydro-13bH-quinolino[2,3,4-kl]acridin-13b-ylium hexafluorophosphate]
- emission signal [1]: ca. 650 nm

Molecule: CN1c2cccc3c2C2c4c(cccc4N(c4cc(O)cc(C(F)(F)F)c4)c4cccc1c42)O3 (stereo not drawn) [MR-67.1_DAOTA]
- η, quenching efficiency of the fluorescence intensity [2]: 99%
- pKa [2]: 7.3
- εmax, molar absorption coefficient [2, 6]: 14700 M⁻¹ cm⁻¹
- λ max, wavelength at the maximum fluorescence intensity [2, 6]: 586 nm
- λabs max, wavelength at maximum absorption of the lowest energy transition [2, 6]: 553 nm
- εmax, molar absorption coefficient [2, 7]: 14300 M⁻¹ cm⁻¹
- λ max, wavelength at the maximum fluorescence intensity [2, 7]: 588 nm
- λabs max, wavelength at maximum absorption of the lowest energy transition [2, 7]: 557 nm

Molecule: CCCCCCCCCCCCN1c2cccc3c2C2c4c(cccc4N(c4cc(S(C)(=O)=O)ccc4O)c4cccc1c42)O3 (stereo not drawn) [Compound 4g, 4-dodecyl-8-(2-hydroxy-5-(methylsulfonyl)phenyl)-4,8-diaza-12-oxa-4,8,12,12c-tetrahydro-dibenzo[cd,mn]-pyrenylium]
- Ion/Io (Ion/Ioff, ratio between φfl-on and φfl-off) [3]: ~100
- pKa [3]: 3.4
- λem (wavelength of maximum emission) [3]: 590
- λmax (wavelength of maximum absorption) [3]: 557
- ϕfl- (φfl-off, fluorescence quantum yield, off-state) [3]: 6%
- ϕfl- (φfl-on, fluorescence quantum yield, on-state) [3]: 26%
- spectral change and pH response, solution versus sol-gel [4]: spectral change is minimal while the response to changing pH is maintained
- responsiveness of ratiometric readout signal ([5]; constant illumination, low and high pH): maintains its responsiveness
- ratiometric readout signal stable for ([5]; high and low pH): at least 16 hours

Molecule: 8-(1-methyl-1-propyl-3-(3-(triethoxysilyl)propyl)urea)-4,8-diazatriangulenium-4-(4-(methylsulfonyl)phenolate) [Compound I2C]
- pKa from ratiometric emission signal [1, 8]: 5.4

Molecule: CN1c2cccc3c2C2c4c(cccc4N(c4cc(C(F)(F)F)ccc4O)c4cccc1c42)O3 (stereo not drawn) [MR-66_DAOTA]
- η, quenching efficiency of the fluorescence intensity [2]: >99%
- pKa [2]: 6.2
- εmax, molar absorption coefficient [2, 6]: 16600/16600 M^−1cm^−1
- λ max, wavelength at the maximum fluorescence intensity [2, 6]: 585 nm
- λabs max, wavelength at maximum absorption of the lowest energy transition [2, 6]: 553 nm
- εmax, molar absorption coefficient [2, 7]: 16600/16600 M^−1cm^−1
- λ max, wavelength at the maximum fluorescence intensity [2, 7]: 588 nm
- λabs max, wavelength at maximum absorption of the lowest energy transition [2, 7]: 558 nm

Molecule: CN1c2cccc3c2C2c4c(cccc4N(c4cccc(O)c4)c4cccc1c42)O3 (stereo not drawn)
- η, quenching efficiency of the fluorescence intensity [2]: 99%
- pKa [2]: 8.5
- εmax, molar absorption coefficient [2, 6]: 13600 M⁻¹ cm⁻¹
- λ max, wavelength at the maximum fluorescence intensity [2, 6]: 590/590 nm
- λabs max, wavelength at maximum absorption of the lowest energy transition [2, 6]: 554 nm
- εmax, molar absorption coefficient [2, 7]: 13500 M⁻¹ cm⁻¹
- λ max, wavelength at the maximum fluorescence intensity [2, 7]: 590/590 nm
- λabs max, wavelength at maximum absorption of the lowest energy transition [2, 7]: 559 nm

Molecule: 8-(1-methyl-1-propyl-3-(3-(triethoxysilyl)propyl)urea)-4,8-diazatriangulenium-4-(4-(trifluoromethyl)phenolate) [Compound I1C]
- emission signal ([1]; pH sensor spot, covalently bound into the SOL-GEL-matrix): ca. 590 nm
- pKa from ratiometric emission signal [1, 8]: 6.3

Molecule: CN1c2cccc3c2C2c4c(cccc4N(c4ccc(O)cc4)c4cccc1c42)O3 (stereo not drawn) [MR-93_DAOTA]
- η, quenching efficiency of the fluorescence intensity [2]: >99%
- pKa [2]: 8.6
- εmax, molar absorption coefficient [2, 6]: 14400 M⁻¹ cm⁻¹
- λ max, wavelength at the maximum fluorescence intensity [2, 6]: 591/591 nm
- λabs max, wavelength at maximum absorption of the lowest energy transition [2, 6]: 555 nm
- εmax, molar absorption coefficient [2, 7]: 14100 M⁻¹ cm⁻¹
- λ max, wavelength at the maximum fluorescence intensity [2, 7]: 591/591 nm
- λabs max, wavelength at maximum absorption of the lowest energy transition [2, 7]: 560 nm

Molecule: CCCCCCCCCCCCN1c2cccc3c2C2c4c(cccc4N(c4cc(F)ccc4O)c4cccc1c42)O3 (stereo not drawn) [Compound 4f, 4-dodecyl-8-(5-fluoro-2-hydroxyphenyl)-4,8-diaza-12-oxa-4,8,12,12c-tetrahydro-dibenzo[cd,mn]-pyrenylium]
- λem (wavelength of maximum emission) [3]: 590
- λmax (wavelength of maximum absorption) [3]: 557

Molecule: CCCCCCCCCCCCn1c2cccc3oc4cccc5c4[c+](c32)c2c1cccc2n5-c1cc(C(F)(F)F)ccc1O [Compound 4h, N-(2-hydroxy-5-(trifluoromethyI)phenyl)-N-dodecyl-diazaoxatriangulenium hexafluorophosphat]
- Ion/Io (Ion/Ioff, ratio between φfl-on and φfl-off) [3]: ~50
- pKa [3]: 6.5
- λem (wavelength of maximum emission) [3]: 590
- λmax (wavelength of maximum absorption) [3]: 557

Molecule: Oc1ccc(N2c3cccc4c3C3c5c(cccc5Oc5cccc2c53)O4)cc1 [Compound 3d]
- Ion/Io (Ion/Ioff, ratio between φfl-on and φfl-off) [3]: ~50
- pKa [3]: 8.3
- λem (wavelength of maximum emission) [3]: 563
- λmax (wavelength of maximum absorption) [3]: 540
- ϕfl- (φfl-off, fluorescence quantum yield, off-state) [3]: >0.5%
- ϕfl- (φfl-on, fluorescence quantum yield, on-state) [3]: 2%

Molecule: Oc1ccccc1N1c2cccc3c2C2c4c(cccc4Oc4cccc1c42)O3 [Compound 3b, N-(2-hydroxyphenyl)-azadioxatriangulenium tetrafluoroborat]
- Ion/Io (Ion/Ioff, ratio between φfl-on and φfl-off) [3]: ~50
- pKa [3]: 6.9
- λem (wavelength of maximum emission) [3]: 558
- λmax (wavelength of maximum absorption) [3]: 541
- ϕfl- (φfl-off, fluorescence quantum yield, off-state) [3]: >0.5%
- ϕfl- (φfl-on, fluorescence quantum yield, on-state) [3]: 8%

Molecule: Oc1cccc(N2c3cccc4c3C3c5c(cccc5Oc5cccc2c53)O4)c1 [Compound 3c, N-(3-hydroxyphenyl)-azadioxatriangulenium tetrafluoroborat]
- Ion/Io (Ion/Ioff, ratio between φfl-on and φfl-off) [3]: ~50
- pKa [3]: 7.3
- λem (wavelength of maximum emission) [3]: 558
- λmax (wavelength of maximum absorption) [3]: 540
- ϕfl- (φfl-off, fluorescence quantum yield, off-state) [3]: >0.5%
- ϕfl- (φfl-on, fluorescence quantum yield, on-state) [3]: 8%

Source: patent publication US10364249B2, “Azatriangulenium salts as PET-quenched fluorescent probes” (KØBENHAVNS UNIVERSITET, priority 2013, dated 2019)
